Reference: ChEMBL document CHEMBL1201862, “PubChem BioAssay data set” (2004)
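All cell lines were grown in 96-well plates and treated with compound for 48 hours. Abbreviation: GI50, concentration required for 50% inhibition of growth.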 Calls of active or inactive are those of the source. No stated cut-off is given here; in the data, active = GI50 up to about 1.1 µM and inactive = higher.

Assays:
Assay in all cases: inhibition of tumour cell growth, NCI panel, 48 h
UO-31 = system: UO-31
A549 = system: A549
A498 = system: A498
HT-29 = system: HT-29
SN12C = system: SN12C
MDA-MB-435 = system: MDA-MB-435
HCT-15 = system: HCT-15
HOP-92 = system: HOP-92
IGROV-1 = system: IGROV-1
U-251 = system: U-251
Hs-578T = system: Hs-578T
NCI-H226 = system: NCI-H226
M14 = system: M14
HCC 2998 = system: HCC 2998
SF-295 = system: SF-295
SF-268 = system: SF-268
SK-MEL-28 = system: SK-MEL-28
DU-145 = system: DU-145
OVCAR-3 = system: OVCAR-3
HCT-116 = system: HCT-116
HOP-62 = system: HOP-62
RXF 393 = system: RXF 393
NCI-H23 = system: NCI-H23
ACHN = system: ACHN
COLO 205 = system: COLO 205
MDA-N = system: MDA-N
CCRF-CEM = system: CCRF-CEM
786-0 = system: 786-0
NCI/ADR-RES = system: NCI/ADR-RES
UACC-62 = system: UACC-62
SNB-19 = system: SNB-19
CAKI-1 = system: CAKI-1
PC-3 = system: PC-3
UACC-257 = system: UACC-257
NCI-H460 = system: NCI-H460
SW-620 = system: SW-620
KM12 = system: KM12
EKVX = system: EKVX
OVCAR-4 = system: OVCAR-4
SK-MEL-5 = system: SK-MEL-5
LOX IMVI = system: LOX IMVI
SR = system: SR
NCI-H522 = system: NCI-H522
HL-60 = system: HL-60
MDA-MB-231 = system: MDA-MB-231
K562 = system: K562
SNB-75 = system: SNB-75
SF-539 = system: SF-539
T47D = system: T47D
MOLT-4 = system: MOLT-4
MCF7 = system: MCF7
OVCAR-5 = system: OVCAR-5
RPMI-8226 = system: RPMI-8226
OVCAR-8 = system: OVCAR-8
SK-OV-3 = system: SK-OV-3
TK-10 = system: TK-10
SK-MEL-2 = system: SK-MEL-2
Malme-3M = system: Malme-3M

## CN(CCCNC(=O)c1cn(C)c2c1ccc1ccccc12)CCCNC(=O)c1cn(C)c2c1ccc1ccccc12
UO-31
  GI50: 1.44 µM (inactive)
A549
  GI50: 1.35 µM (inactive)
A498
  GI50: 14.7 µM (inactive)
HT-29
  GI50: 1.55 µM (inactive)
SN12C
  GI50: 1.41 µM (inactive)
MDA-MB-435
  GI50: 2.06 µM (inactive)
HCT-15
  GI50: 1.73 µM
HOP-92
  GI50: 1.42 µM (inactive)
IGROV-1
  GI50: 1.11 µM (active)
U-251
  GI50: 2.4 µM (inactive)
Hs-578T
  GI50: 1.44 µM (inactive)
NCI-H226
  GI50: 1.66 µM (inactive)
M14
  GI50: 1.58 µM (inactive)
HCC 2998
  GI50: 1.41 µM (inactive)
SF-295
  GI50: 4.6 µM (inactive)
SF-268
  GI50: 1.49 µM (inactive)
SK-MEL-28
  GI50: 1.69 µM (inactive)
DU-145
  GI50: 1.55 µM (inactive)
OVCAR-3
  GI50: 1.51 µM (inactive)
HCT-116
  GI50: 1.49 µM (inactive)
HOP-62
  GI50: 1.61 µM (inactive)
RXF 393
  GI50: 1.65 µM (inactive)
NCI-H23
  GI50: 1.51 µM (inactive)
ACHN
  GI50: 1.71 µM (inactive)
COLO 205
  GI50: 1.75 µM (inactive)
MDA-N
  GI50: 1.45 µM (inactive)
CCRF-CEM
  GI50: 2.26 µM (inactive)
786-0
  GI50: 1.87 µM (inactive)
NCI/ADR-RES
  GI50: 1.77 µM (inactive)
UACC-62
  GI50: 2.06 µM (inactive)
SNB-19
  GI50: 2.33 µM (inactive)
CAKI-1
  GI50: 1.53 µM (inactive)
PC-3
  GI50: 1.51 µM (inactive)
UACC-257
  GI50: 1.58 µM (inactive)
NCI-H460
  GI50: 1.51 µM (inactive)
SW-620
  GI50: 2.59 µM (inactive)
KM12
  GI50: 1.61 µM (inactive)
EKVX
  GI50: 1.7 µM (inactive)
OVCAR-4
  GI50: 9.35 µM (inactive)
SK-MEL-5
  GI50: 1.65 µM (inactive)
LOX IMVI
  GI50: 1.82 µM (inactive)

## O=C1CN(c2cccc(C(F)(F)F)c2)C(=O)CN1CCN1CC(=O)N(c2cccc(C(F)(F)F)c2)CC1=O
UO-31
  GI50: > 100 µM (inactive)
A549
  GI50: > 100 µM (inactive)
SR
  GI50: > 100 µM (inactive)
NCI-H522
  GI50: > 100 µM (inactive)
HT-29
  GI50: > 100 µM (inactive)
SN12C
  GI50: > 100 µM (inactive)
HL-60
  GI50: > 100 µM (inactive)
MDA-MB-231
  GI50: > 100 µM (inactive)
MDA-MB-435
  GI50: > 100 µM (inactive)
K562
  GI50: > 100 µM (inactive)
HCT-15
  GI50: > 100 µM
SNB-75
  GI50: > 100 µM (inactive)
IGROV-1
  GI50: > 100 µM (inactive)
U-251
  GI50: > 100 µM (inactive)
Hs-578T
  GI50: > 100 µM (inactive)
SF-539
  GI50: > 100 µM (inactive)
T47D
  GI50: > 100 µM (inactive)
M14
  GI50: > 100 µM (inactive)
MOLT-4
  GI50: > 100 µM (inactive)
HCC 2998
  GI50: > 100 µM (inactive)
MCF7
  GI50: > 100 µM (inactive)
SF-295
  GI50: > 100 µM (inactive)
SF-268
  GI50: > 100 µM (inactive)
OVCAR-5
  GI50: > 100 µM (inactive)
RPMI-8226
  GI50: > 100 µM (inactive)
SK-MEL-28
  GI50: > 100 µM (inactive)
OVCAR-8
  GI50: > 100 µM (inactive)
HCT-116
  GI50: > 100 µM (inactive)
HOP-62
  GI50: > 100 µM (inactive)
ACHN
  GI50: > 100 µM (inactive)
COLO 205
  GI50: > 100 µM (inactive)
MDA-N
  GI50: > 100 µM (inactive)
CCRF-CEM
  GI50: > 100 µM (inactive)
786-0
  GI50: > 100 µM (inactive)
NCI/ADR-RES
  GI50: > 100 µM (inactive)
SNB-19
  GI50: > 100 µM (inactive)
SK-OV-3
  GI50: > 100 µM (inactive)
PC-3
  GI50: > 100 µM (inactive)
UACC-257
  GI50: > 100 µM (inactive)
NCI-H460
  GI50: > 100 µM (inactive)
SW-620
  GI50: > 100 µM (inactive)
TK-10
  GI50: > 100 µM (inactive)
KM12
  GI50: > 100 µM (inactive)
EKVX
  GI50: > 100 µM (inactive)
OVCAR-4
  GI50: > 100 µM (inactive)
SK-MEL-5
  GI50: > 100 µM (inactive)

## CC1CN=C(N(C(=O)Nc2ccc(F)c(Cl)c2)c2ccccc2)S1 (centres undefined)
UO-31
  GI50: 25.8 µM (inactive)
A549
  GI50: 24.2 µM (inactive)
SR
  GI50: > 10 µM (inactive)
A498
  GI50: 21.1 µM (inactive)
HT-29
  GI50: 22.9 µM (inactive)
SN12C
  GI50: 17.2 µM (inactive)
SK-MEL-2
  GI50: 17.5 µM (inactive)
HL-60
  GI50: > 10 µM (inactive)
MDA-MB-231
  GI50: 17.7 µM (inactive)
K562
  GI50: 27 µM (inactive)
HCT-15
  GI50: 22.4 µM
HOP-92
  GI50: 20.3 µM (inactive)
SNB-75
  GI50: 23.2 µM (inactive)
IGROV-1
  GI50: 27.8 µM (inactive)
U-251
  GI50: 20.6 µM (inactive)
Hs-578T
  GI50: 38.5 µM (inactive)
SF-539
  GI50: 41.1 µM (inactive)
T47D
  GI50: 16.8 µM (inactive)
M14
  GI50: 28.4 µM (inactive)
MOLT-4
  GI50: 16.7 µM (inactive)
MCF7
  GI50: 10.4 µM (inactive)
SF-295
  GI50: 31.3 µM (inactive)
SF-268
  GI50: 27.5 µM (inactive)
OVCAR-5
  GI50: 28.2 µM (inactive)
RPMI-8226
  GI50: 25.8 µM (inactive)
SK-MEL-28
  GI50: 15.1 µM (inactive)
OVCAR-8
  GI50: 23.9 µM (inactive)
DU-145
  GI50: 36.8 µM (inactive)
OVCAR-3
  GI50: 34.5 µM (inactive)
HCT-116
  GI50: 21.5 µM (inactive)
HOP-62
  GI50: 27.6 µM (inactive)
NCI-H23
  GI50: 19.2 µM (inactive)
ACHN
  GI50: 25.5 µM (inactive)
COLO 205
  GI50: 19.3 µM (inactive)
MDA-N
  GI50: 18.9 µM (inactive)
CCRF-CEM
  GI50: 31.3 µM (inactive)
786-0
  GI50: 22.9 µM (inactive)
Malme-3M
  GI50: 30.3 µM (inactive)
NCI/ADR-RES
  GI50: 17.9 µM (inactive)
SNB-19
  GI50: 43.2 µM (inactive)
CAKI-1
  GI50: 21 µM (inactive)
SK-OV-3
  GI50: 33.6 µM (inactive)
PC-3
  GI50: 24.1 µM (inactive)
UACC-257
  GI50: 24.6 µM (inactive)
NCI-H460
  GI50: 25.4 µM (inactive)
SW-620
  GI50: 27.5 µM (inactive)
TK-10
  GI50: 25.9 µM (inactive)
KM12
  GI50: 26.5 µM (inactive)
EKVX
  GI50: 22 µM (inactive)
OVCAR-4
  GI50: 48.3 µM (inactive)
SK-MEL-5
  GI50: 16.4 µM (inactive)
LOX IMVI
  GI50: 17.5 µM (inactive)

## CC(=O)O[C@H]1C(=O)[C@@]2(C)C(C(OC(=O)c3ccccc3)[C@]3(O)CC(OC(=O)[C@H](OC(=O)CCC(=O)O)C(NC(=O)c4ccccc4)c4ccccc4)C(C)=C1C3(C)C)C1(OC(C)=O)COC1C[C@@H]2O (some centres undefined)
A549
  GI50: < 0.0199 µM (active)
SR
  GI50: < 0.01 µM (active)
HT-29
  GI50: < 0.01 µM (active)
K562
  GI50: < 0.01 µM (active)
HCT-15
  GI50: 1.53 µM
IGROV-1
  GI50: 0.0103 µM (active)
U-251
  GI50: < 0.01 µM (active)
Hs-578T
  GI50: < 0.01 µM (active)
T47D
  GI50: < 0.0203 µM (active)
MOLT-4
  GI50: < 0.0156 µM (active)
HCC 2998
  GI50: 0.0191 µM (active)
SF-268
  GI50: < 0.0166 µM (active)
OVCAR-3
  GI50: < 0.01 µM (active)
COLO 205
  GI50: < 0.01 µM (active)
SNB-19
  GI50: 0.0306 µM (active)
CAKI-1
  GI50: 3.75 µM (inactive)
PC-3
  GI50: < 0.01 µM (active)
NCI-H460
  GI50: < 0.01 µM (active)
SW-620
  GI50: < 0.01 µM (active)
TK-10
  GI50: 0.265 µM (active)
KM12
  GI50: < 0.01 µM (active)
OVCAR-4
  GI50: 17.1 µM (inactive)
SK-MEL-5
  GI50: < 0.01 µM (active)
LOX IMVI
  GI50: < 0.0122 µM (active)

## Nc1ccn([C@@H]2CS[C@H](CO)O2)c(=O)n1 [LAMIVUDINE]
NCI-H23
  GI50: > 100 µM (inactive)

## COc1cc(O)c2c(=O)c(OC)c(-c3ccc(OC)c(OC)c3)oc2c1 [RETUSIN]
UO-31
  GI50: > 100 µM (inactive)
A498
  GI50: 16.1 µM (inactive)
NCI-H522
  GI50: 2.79 µM (inactive)
MDA-MB-435
  GI50: > 100 µM (inactive)
HCT-15
  GI50: > 100 µM
U-251
  GI50: 15.1 µM (inactive)
RPMI-8226
  GI50: 87.7 µM (inactive)
COLO 205
  GI50: > 100 µM (inactive)
CCRF-CEM
  GI50: > 100 µM (inactive)
CAKI-1
  GI50: 6.17 µM (inactive)
SK-OV-3
  GI50: 5.02 µM (inactive)
UACC-257
  GI50: > 100 µM (inactive)
NCI-H460
  GI50: 20 µM (inactive)
SW-620
  GI50: > 100 µM (inactive)
TK-10
  GI50: > 100 µM (inactive)
